# Test results from US9394317B2, “Imidazo pyridine compounds” (Eli Lilly and Company, priority 2013, dated 2016).
# Tests used:
# [1] = target: T1, recombinant human autotaxin (Homo sapiens, UniProt Q13822); assay: Inhibition of Autotaxin as Measured by Choline Release; type: biochemical; settings: substrate LPC 16:0 30 μM, 37° C., 1 hour; arithmetic mean
# T1 construct: full length human autotaxin with a C-terminal His tag transfected into 293E cells; His tag (C); made in house; host or cells: 293E cells
# Method: The purpose of this assay is to detect autotaxin inhibition using a choline release assay.
# Test compounds (10 mM stocks in 100% DMSO) are serially diluted in 100% DMSO resulting in 10 concentrations of 100× inhibitor in half area 96 well plates (Corning 3992). Each of these 10 wells in 100% DMSO is diluted 1:33.33 in assay buffer in round bottom 96 well plates (Fisher 12565502) resulting in 3× concentrations in well containing 3% DMSO. The assay buffer is 50 mM Tris pH8.0, 5 mM KCl, 1 mM CaCl2, 1 mM MgCl2, 0.01% TRITON™ X-100 (Sigma T9284) and 0.01% fatty acid free bovine serum albumin (Sigma A8806). A 20 μl aliquot of each 3× test compound is then added to black flat bottom 96 well plates (Corning 3991) in singlicate. A 20 μl aliquot per well of 3× recombinant human autotaxin (full length human autotaxin with a C-terminal His tag transfected into 293E cells and purified via nickel chelate and size exclusion chromatography) is then added to every well except for the no enzyme control wells. […] The resorufin on the plates is measured with a SpectraMax Gemini EM fluorometer at excitation-emission wavelengths of 530-590 nm using SoftMax Pro 4.8 software. IC50s are calculated using 4 parameter curve fits with the internal Lilly software OLO curve fitting tool. Results are expressed as the arithmetic mean +/− standard deviation; n=x.
# endogenous autotaxin = target: T2, endogenous autotaxin (Homo sapiens, UniProt Q13822); assay: Reduction of LPA in the Presence of Human Plasma; type: biochemical; settings: 90% pooled human plasma, 3 hours at 37° C., total LPA by mass spec; arithmetic mean
# T2 construct: The increased endogenous LPC levels are cleaved by endogenous autotaxin; tissue Lampire Biologicals; host or cells: pooled human plasma (healthy female donors, sodium heparin)
# Text: The following assay is intended to measure the reduction of LPA. This assay is a tool that can be used to identify selective autotaxin-mediated LPA inhibitor compounds when it is used to test compounds that have been identified as autotaxin inhibitors. LPA biosynthesis through autotaxin is believed to the source of LPA for LPA1 mediated neuropathic pain. Makoto Inoue, et. al, “Autotaxin, a synthetic enzyme of lysophosphatidic acid (LPA), mediates the induction of nerve-injured neuropathic pain”, Molecular Pain, 2008, 4:6. Targeted inhibition of the autotaxin mediated LPA biosynthesis is supported by the results of this assay.
# Units of plasma from healthy human female donors collected in sodium heparin (Lampire Biologicals) are pooled, aliquoted and stored at −80° C. […] A 400 μl aliquot of extraction buffer (50% methanol, 49.9% acetonitrile, 0.1% acetic acid) containing LPA internal standards (50 ng/ml D5 deuterium LPA 16:0 and 50 ng/ml D5 deuterium LPA 18:0) is added to each well and the total LPA in each sample is determined by mass spec analysis. Percent reduction of LPA is calculated according to the following formula: 100−(3 hour plasma+test compound−0 hour plasma no test compound control)/(3 hour plasma no test compound control−0 hour plasma no test compound control)×100
# IC50 values are calculated using 4 parameter curve fitting. […]
IC50 [1] [nM],IC50 (endogenous autotaxin) [nM],SMILES
< 1.7,2.22,"O=C(OCC1CCc2nccn2C1)N1Cc2cnc(NC3Cc4ccccc4C3)nc2C1 (single isomer, unassigned; isomer 2) [Example 3, 5,6,7,8-tetrahydroimidazo[1,2-a]pyridin-6-ylmethyl 2-(2,3-dihydro-1H-inden-2-ylamino)-5,7-dihydro-6H-pyrrolo[3,4-d]pyrimidine-6-carboxylate isomer 2]"
2.04,12.9,"O=C(OCC1Cn2ccnc2CO1)N1Cc2cnc(NC3Cc4ccccc4C3)nc2C1 (single isomer, unassigned; isomer 2) [Example 8, 5,6-dihydro-8H-imidazo[2,1-c][1,4]oxazin-6-ylmethyl 2-(2,3-dihydro-1H-inden-2-ylamino)-5,7-dihydro-6H-pyrrolo[3,4-d]pyrimidine-6-carboxylate isomer 2]"
